Data on seven compounds can be found in patent publication US5658928A, “Amino acid derivatives” (Hoffmann-La Roche Inc., priority 1991, dated 1997).

A word on the IC50: it is the concentration that inhibits the measured activity by half. Higher therefore signals lower potency. A word on the LD50: it is the dose at which mortality reaches 50%. A low value points to greater toxicity.

Data set [1] has as its target T1, fibrinogen receptor, glycoprotein IIb/IIIa (Homo sapiens, UniProt P05106+P08514).
T1 construct: The glycoprotein IIb/IIIa is obtained from Triton X-100 extracts of human blood platelets; from tissue; host or cells: human blood platelets (Triton X-100 extract)
Kind of data set: inhibition of the binding of fibrinogen to the immobilized fibrinogen receptor, glycoprotein IIb/IIIa (ELISA). To be noted: concentration required to inhibit the binding of fibrinogen to the immobilized receptor by 50%. How it is done: The glycoprotein IIb/IIIa is obtained from Triton X-100 extracts of human blood platelets and purified by lectin affinity chromatography (Analytical Biochemistry 151, 1985, 169-177) and chromatography on an Arg-Gly-Asp-Ser affinity column (Science 231, 1986, 1559-62). The thus-obtained receptor protein is bonded to microtiter plates. The specific binding of fibrinogen to the immobilized receptor is determined with the aid of an ELISA system ("enzyme-linked immunosorbent assay"). The IC50 values hereinafter correspond to that concentration of the test substance which is required to inhibit the binding of fibrinogen to the immobilized receptor by 50%: […]
(In general: An ELISA detects its analyte on a solid surface through an enzyme-linked reagent.)

A further data set in a line: in vivo. To be noted: iv, i.v. in the mouse. The text has this: These compounds have low toxicity.

T1 sequence (P08514 32-887 limits assumed): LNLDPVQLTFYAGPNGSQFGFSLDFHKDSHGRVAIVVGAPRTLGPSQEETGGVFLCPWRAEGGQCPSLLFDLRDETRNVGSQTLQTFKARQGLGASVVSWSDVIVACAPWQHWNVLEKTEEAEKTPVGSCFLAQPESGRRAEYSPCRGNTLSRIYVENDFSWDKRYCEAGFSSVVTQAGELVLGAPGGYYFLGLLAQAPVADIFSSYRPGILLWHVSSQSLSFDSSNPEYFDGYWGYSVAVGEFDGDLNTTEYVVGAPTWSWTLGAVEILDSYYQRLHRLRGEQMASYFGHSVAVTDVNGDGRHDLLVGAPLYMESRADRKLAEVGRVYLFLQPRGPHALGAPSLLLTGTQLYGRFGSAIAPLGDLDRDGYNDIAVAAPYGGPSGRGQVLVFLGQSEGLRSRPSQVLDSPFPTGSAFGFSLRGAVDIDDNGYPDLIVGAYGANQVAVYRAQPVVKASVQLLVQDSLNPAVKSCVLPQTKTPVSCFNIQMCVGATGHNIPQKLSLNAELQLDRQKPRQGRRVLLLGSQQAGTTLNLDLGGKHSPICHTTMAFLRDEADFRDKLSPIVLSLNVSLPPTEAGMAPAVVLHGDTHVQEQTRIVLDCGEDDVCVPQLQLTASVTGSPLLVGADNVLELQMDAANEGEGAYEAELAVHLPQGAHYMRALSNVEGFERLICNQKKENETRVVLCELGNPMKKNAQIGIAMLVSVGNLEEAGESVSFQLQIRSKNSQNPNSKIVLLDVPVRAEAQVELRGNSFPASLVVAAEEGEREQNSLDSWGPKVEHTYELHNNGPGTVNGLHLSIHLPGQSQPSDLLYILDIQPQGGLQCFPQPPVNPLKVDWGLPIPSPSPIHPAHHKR
T1 sequence (P08514 891-1039 partner limits assumed): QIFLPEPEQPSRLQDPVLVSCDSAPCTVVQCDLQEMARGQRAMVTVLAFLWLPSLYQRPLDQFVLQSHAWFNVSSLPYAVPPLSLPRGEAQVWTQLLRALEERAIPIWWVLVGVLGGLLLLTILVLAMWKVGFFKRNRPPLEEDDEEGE
T1 sequence (P05106 27-788): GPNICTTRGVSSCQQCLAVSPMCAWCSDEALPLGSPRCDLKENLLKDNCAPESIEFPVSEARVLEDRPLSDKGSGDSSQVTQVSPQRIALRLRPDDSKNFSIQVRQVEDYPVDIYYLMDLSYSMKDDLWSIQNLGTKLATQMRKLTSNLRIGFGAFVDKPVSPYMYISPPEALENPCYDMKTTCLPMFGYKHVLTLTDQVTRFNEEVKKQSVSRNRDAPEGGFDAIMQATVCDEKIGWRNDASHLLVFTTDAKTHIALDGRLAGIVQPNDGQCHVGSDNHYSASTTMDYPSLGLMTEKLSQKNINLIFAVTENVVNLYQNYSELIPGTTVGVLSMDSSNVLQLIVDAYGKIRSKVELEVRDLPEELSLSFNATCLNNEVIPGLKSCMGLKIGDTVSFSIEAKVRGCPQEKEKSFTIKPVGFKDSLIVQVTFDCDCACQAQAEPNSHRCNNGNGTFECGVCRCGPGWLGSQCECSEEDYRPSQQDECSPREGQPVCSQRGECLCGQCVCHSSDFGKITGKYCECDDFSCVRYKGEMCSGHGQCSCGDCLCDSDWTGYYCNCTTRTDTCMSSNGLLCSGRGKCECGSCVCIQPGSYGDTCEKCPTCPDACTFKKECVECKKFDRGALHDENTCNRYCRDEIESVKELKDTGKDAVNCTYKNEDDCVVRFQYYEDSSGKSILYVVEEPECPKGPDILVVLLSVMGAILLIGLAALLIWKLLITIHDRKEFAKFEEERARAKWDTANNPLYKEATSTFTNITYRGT

As for `N=C(N)c1ccc(C(=O)NCC(=O)N2CCC(OCC(=O)O)CC2)cc1` [Example 1, [[1-[N-(p-amidinobenzoyl)glycyl]-4-piperidinyl]oxy]acetic acid], the IC50 in data set [1] is 10 µM.

Take `C[C@H](NC(=O)c1ccc(C(=N)N)cc1)C(=O)N1CCC(OCC(=O)O)CC1` [Example 3, [[1-[N-(p-amidinobenzoyl)-L-alanyl]-4-piperidinyl]oxy]acetic acid]: the IC50 in data set [1] stood at 1.7 µM. This compound also showed an LD50 in “in vivo” of 250 mg/kg.

In data set [1], `C[C@@H](NC(=O)c1ccc(C(=N)N)cc1)C(=O)N1CCC(OCC(=O)O)CC1` [Example 4, [[1-[N-(p-amidinobenzoyl)-D-alanyl]-4-piperidinyl]oxy]acetic acid] displayed an IC50 of 140 µM.

`C[C@H](NC(=O)c1ccc(C(=N)N)cn1)C(=O)N1CCC(OCC(=O)O)CC1` [Example 5, [[1-[N-[(5-amidino-2-pyridyl)carbonyl]-L-alanyl]-4-piperidinyl]oxy]acetic acid] displayed an IC50 in data set [1] of 1 µM. Also, the LD50 in “in vivo” worked out at 500 mg/kg.

`CC(C)[C@H](NC(=O)c1ccc(C(=N)N)cc1)C(=O)N1CCC(OCC(=O)O)CC1` [Example 6, [[1-[N-(p-amidinobenzoyl)-L-valyl]-4-piperidinyl]oxy]-acetic acid]: in data set [1], the IC50 is 27 µM.

In data set [1], `CC(C)C[C@H](NC(=O)c1ccc(C(=N)N)cc1)C(=O)N1CCC(OCC(=O)O)CC1` [Example 7, [[1-[N-(p-amidinobenzoyl)-L-leucyl]-4-piperidinyl]oxy]acetic acid] came in with an IC50 of 33 µM.

In the case of `N=C(N)c1ccc(C(=O)N[C@@H](Cc2ccc(O)cc2)C(=O)N2CCC(OCC(=O)O)CC2)cc1` [Example 14, [[1-[N-(p-amidinobenzoyl)-L-tyrosil]-4-piperidinyl]oxy]acetic acid], in “in vivo”, the LD50 stood at 250 mg/kg.
